In patent US8980917B2, “Methods for treating or preventing brain infections” (The Johns Hopkins University, priority 2008, dated 2015):
Entries after “also recorded” stand apart in the source; their conditions may differ. Like-named read-outs stand apart in the source and are kept apart here.

Tests used:
HBMEC [1] = conditions: cited from earlier work; for E. coli invasion of human BMEC: inhibitors of iPLA2 and sPLA2, refs (1-3, 24); for E. coli invasion of HBMEC: pretreatment with microfilament-disrupting agents, previous experiments
human BMEC [2] = conditions: inhibitors of iPLA2 and sPLA2; refs (1-3, 24); cited from earlier work
HBMEC [3] = assay: E. coli K1 binding and invasion assays in human BMEC (HBMEC); assay type: cell-based; conditions: for E. coli K1 invasion of HBMEC: strain RS218, HBMEC pretreated 30 mins, compared to vehicle control (DMSO); for E. coli K1 invasion of human BMEC monolayers: inhibitors of cPLA2α, Rho kinase, Rac1 and PKC
Description: E. coli strain RS218 was grown overnight in BHI broth in the presence of streptomycin (50 μg/ml). Bacteria were resuspended in experimental medium [M199-HamF12 (1:1) containing 5% heat-inactivated fetal bovine serum, 2 mM glutamine, and 1 mM pyruvate] and added in a multiplicity of infection (MOI) of 100:1 to HBMEC grown in collagen-coated 24-well plates at 37° C. in 5% CO2 incubator for 90 min for binding assay as described previously (9, 10, 14, 28). HBMEC were washed four times with PBS to remove unbound bacteria, lysed in 0.025% Triton X-100 and plated for determinations of CFUs. The results were calculated as a percent of the initial inoculum and expressed as percent relative binding compared to percent binding of RS218 in the presence of vehicle control (DMSO). Each set was run in triplicates.
The HBMEC invasion assay with gentamicin treatment was performed to determine the number of viable intracellular bacteria recovered from the infected HBMEC, as previously described (9, 10, 14, 28). E. coli K1 strain RS218 was added to HBMEC as described above for binding assay. HBMEC were subsequently washed with RPMI 1640 and incubated with experimental media containing gentamicin (100 μg/ml) for 1 h to kill extracellular bacteria. The cells were washed again with PBS and lysed in 0.025% Triton X-100. The released intracellular bacteria were enumerated by plating on sheep blood agar plates. The results were calculated as a percent of the initial inoculum and expressed as percent relative invasion compared to percent invasion of RS218 in the presence of vehicle control (DMSO). Each set was run in triplicates.
To examine the effects of inhibitors and antagonists on E. coli K1 binding to and invasion of HBMEC, HBMEC were pretreated with inhibitors or antagonists for 30 mins before addition of E. coli, and then processed for binding and invasion assays as described above.
E. coli strain RS218 (O18:K1:H7), a cerebrospinal fluid isolate from a neonate with meningitis, was grown overnight in brain heart infusion (BHI) broth (Difco Laboratories, Detroit, Mich.). Bacteria were resuspended in experimental medium [M199-HamF12 (1:1) containing 5% heat-inactivated fetal bovine serum, 2 mM glutamine, and 1 mM pyruvate] and added in a multiplicity of infection (MOI) of 100:1 to BMECs grown in collagen-coated 24-well plates at 37° C. in 5% CO2 incubator for 90 min for binding assay, as previously described^11. BMECs were washed four times with PBS to remove unbound bacteria, lysed in 0.025% Triton X-100 and plated for determinations of CFUs. The results were calculated as a percent of the initial inoculum and expressed as percent relative binding compared to percent binding of RS218 in the presence of vehicle control (DMSO). Each set was run in triplicates.
The BMEC invasion assay with gentamicin treatment^11 was performed to determine the number of viable intracellular bacteria recovered from the infected BMECs. E. coli K1 strain RS218 was added to BMEC as described above for binding assay. BMECs were subsequently washed with RPMI 1640 and incubated with experimental media containing gentamicin (100 μg/ml) for 1 h to kill extracellular bacteria. The cells were washed again with PBS, lysed in 0.025% Triton X-100, and the released intracellular bacteria were enumerated by plating on sheep blood agar plates. The results were calculated as a percent of the initial inoculum and expressed as percent relative invasion compared to percent invasion of RS218 in the presence of vehicle control (DMSO). Each set was run in triplicates.
E. coli. Human BMEC association and invasion assays were carried out as described previously (15). Briefly, for association assays, confluent human BMEC in 24-well tissue culture plates were incubated with 10^7 CFU of E. coli at a multiplicity of infection of 100 for 90 minutes at 37° C. […]

E. coli K1 strain RS218 = assay: Mouse model of experimental hematogenous E. coli meningitis (5-LO-/- and wild-type 129SvEv mice); assay type: in vivo
Source text: Female 5-LO−/− (129-Alox5^tm1Fun/J) and strain-matched (129SvEv) wild-type mice, 9˜12 week old and 18˜26 gm, were used (23). […] Most animals receiving 1×10^7 CFUs, however, died between one and two hour of intravenous inoculation. Based on these observations, we examined and compared E. coli K1 penetration into the brain at one hour following intravenous administration of 1×10^7 CFUs of strain RS218 in 5-LO−/− and wild type mice.
Mice were anesthetized with pentobarbital sodium given subcutaneously at 50 mg/kg and each mouse received 1×10^7 CFU of E. coli RS218 in 100 μl PBS via the tail vein. One hour later, mouse chest was cut open, and blood from right ventricle was collected and plated for bacterial counts (CFUs). The mouse was, then, perfused with a mammalian Ringer's solution by transcardiac perfusion through a 23-gauge needle inserted into the left ventricle of the heart under the perfusion pressure of about 100 mmHg. The perfusate exited through a cut in the right atrium. The composition of the mammalian Ringer solution was: (in mM) 132 NaCl, 4.6 KCl, 2 CaCl2, 1.2 MgSO4, 5.5 glucose, 5.0 NaHCO3, and 20 HEPES and Na-HEPES, containing 10 mg/ml BSA; pH of the Ringer solution was maintained at 7.40-7.45 by adjustment of the ratio of Na-HEPES to HEPES. […] Bacterial penetration into the brain was also expressed as (brain CFUs per gm/blood CFUs per ml)×100. […]

PKC = assay: Activation of PKC and other signaling molecules in response to microbes in human BMEC; assay type: cell-based; conditions: response to type III GBS and E. coli K1 in human BMEC monolayers
Source text: We have previously shown that RhoGTPases and PKC contribute to type III GBS and E. coli K1 invasion of BMEC monolayers (1-3), and our next studies were to examine whether cPLA2α activations are related to RhoGTPases and PKC in type III GBS and E. coli K1 invasion of human BMEC monolayers (e.g., up- and down-stream of each other) by using inhibitors of cPLA2α (AACOCF3), Rho kinase (Y-27632), Rac1 (NSC-23766) and PKC (calphostin C).

human BMEC [4] = assay: Type III GBS binding and invasion assays in human BMEC; assay type: cell-based; conditions: inhibitors of cPLA2α, Rho kinase, Rac1 and PKC
Description: GBS. Logarithmic phase cultures of GBS grown in Todd-Hewitt broth at 37° C. were washed and suspended in tissue culture medium. Approximately 5×10^5 CFUs of GBS were added to confluent human BMEC grown in each well of a 24-well plate (Corning Costar, multiplicity of infection of 5 bacteria/cell). The plates were centrifuged at 800×g for 10 min to promote the contact of GBS to the surface of the human BMEC monolayer, and then they were incubated for 2 hr at 37° C. The monolayers were washed three times with PBS and incubated with medium containing gentamicin (100 μg/ml) and penicillin (5 μg/ml) at 37° for 2 hr to kill extracellular bacteria. The monolayers were washed again, lysed, and viable intracellular bacteria were enumerated by culturing onto sheep blood agar plates. The percent invasion was calculated as (the number of intracellular bacteria divided by the number of bacteria inoculated)×100. Each assay was run in triplicate and also repeated at least twice. In one set of experiments the total GBS associated with human BMEC were quantified by the above procedure except that the incubation with gentamicin/penicillin was omitted.
Briefly, human BMEC were pretreated with AACOCF3 for 60 min, and then processed for type III GBS and E. coli K1 binding and invasion assays, as described above.
We next examined the effect of montelukast on type III GBS and E. coli K1 invasion of human BMEC by the methods described earlier. Briefly, human BMEC were treated with monelukast for 60 min and then processed for binding and invasion assays with type III GBS strain K79 and E. coli K1 strain RS 218.

[5] = cited from earlier work

## CC(=O)O[C@@H]1C[C@@H]2[C@@]3(C)CCCC(C)(C)[C@@H]3CC[C@@]2(C)[C@@H]2CC=C(C=O)[C@H](C=O)[C@@]12C [12-episcalaradial]
HBMEC [1]
  E. coli invasion of human BMEC: did not exhibit any significant inhibition
Human BMEC [2]
  GBS invasion of human BMEC: did not exhibit any significant inhibition

## O=C(O)C1(c2ccc3c(c2)OC[C@H](Cc2ccc(-c4ccccc4)cc2)[C@H]3O)CCCC1 [CP105696]
HBMEC [3]
  E. coli K1 invasion of HBMEC: failed to affect E. coli K1 invasion of human BMEC monolayers; also recorded: failed to exhibit any inhibition of E. coli invasion of HBMEC

## CCCCC/C=C\C\C=C/C=C/C=C/[C@@H](SC[C@H](N)C(=O)NCC(=O)O)[C@@H](O)CCCC(=O)O [LTD4]
E. coli K1 strain RS218; 5-LO-/- mice, one hour after i.v. E. coli K1 strain RS218
  E. coli penetration into the brains: rescued the decreased E. coli penetration into the brains

## CN(C)C(=O)CCSC(SCCC(=O)O)c1cccc(/C=C/c2ccc3ccc(Cl)cc3n2)c1 (stereo not shown) [MK571]
HBMEC [3]
  E. coli K1 invasion of HBMEC: inhibited E. coli K1 invasion of human BMEC monolayers in a dose-dependent manner; also recorded: effective in inhibiting E. coli invasion of HBMEC in a dose-dependent manner
E. coli K1 strain RS218; wild type mice, oral 400 μg/mouse one hour before bacterial injection, one hour after i.v. 1×10^7 CFU
  E. coli K1 penetration into the brain (brain CFU/gm and percent of brain CFU/blood CFU): significantly decreased E. coli K1 penetration into the brain in the wild type mice; also recorded: significantly decreased E. coli K1 penetration into the brain of wild type mice

## CC(C)c1ccc2c(c1)c(SC(C)(C)C)c(CC(C)(C)C(=O)O)n2Cc1ccc(Cl)cc1 [MK886]
HBMEC [3]
  E. coli K1 invasion of HBMEC: significantly inhibited E. coli K1 invasion of HBMEC in a dose-dependent manner

## CCN(CC)CCCC(C)Nc1nc(C)cc(Nc2ccc3nc(C)cc(N)c3c2)n1 (stereo not shown) [NSC-23766]
PKC
  inhibition of other signaling molecules: did not exhibit any inhibition of other signaling molecules
HBMEC [3]
  E. coli K1 invasion of human BMEC monolayers: inhibited type III GBS and E. coli K1 invasion of human BMEC monolayers in a dose-dependent manner
Human BMEC [4]
  type III GBS invasion of human BMEC monolayers: inhibited type III GBS and E. coli K1 invasion of human BMEC monolayers in a dose-dependent manner

## C[C@@H](N)[C@H]1CC[C@H](C(=O)Nc2ccncc2)CC1 [Y-27632]
PKC
  inhibition of other signaling molecules: did not exhibit any inhibition of other signaling molecules
HBMEC [3]
  E. coli K1 invasion of human BMEC monolayers: inhibited type III GBS and E. coli K1 invasion of human BMEC monolayers in a dose-dependent manner
Human BMEC [4]
  type III GBS invasion of human BMEC monolayers: inhibited type III GBS and E. coli K1 invasion of human BMEC monolayers in a dose-dependent manner

## O=C1O/C(=C/Br)CCC1c1cccc2ccccc12 (stereo not shown) [bromoenol lactone]
HBMEC [1]
  E. coli invasion of human BMEC: did not exhibit any significant inhibition
Human BMEC [2]
  GBS invasion of human BMEC: did not exhibit any significant inhibition

## C=C1[C@@H](C)[C@H]2[C@H](Cc3ccccc3)NC(=O)[C@]23[C@H](OC(C)=O)/C=C/[C@@](C)(O)C(=O)[C@@H](C)C/C=C/[C@H]3[C@@H]1O [cytochalasin D]
HBMEC [1]
  E. coli invasion of HBMEC: inhibited

## C/C1=C/C(=O)O[C@@H]2C[C@@H](CC[C@H](C)/C=C\C=C\CC1)O[C@@](O)([C@@H]1CSC(=O)N1)C2 [latrunculin A]
HBMEC [1]
  E. coli invasion of HBMEC: inhibited

## O=C(Nc1cccc2c(=O)cc(-c3nnn[nH]3)oc12)c1ccc(OCCCCc2ccccc2)cc1 [pranlukast]
[5]; in vivo
  safety and tolerability in clinical trials: safe and well tolerated

## COc1cc(C(=O)NS(=O)(=O)c2ccccc2C)ccc1Cc1cn(C)c2ccc(NC(=O)OC3CCCC3)cc12 [zafirlukast]
HBMEC [3]
  E. coli K1 invasion of HBMEC: effective in inhibiting E. coli invasion of HBMEC in a dose-dependent manner
[5]; developed for asthma
  safety and tolerability in clinical trials: safe and well tolerated

## CC(c1cc2ccccc2s1)N(O)C(N)=O (stereo not shown) [zileuton, Zileuton]
HBMEC [3]
  E. coli K1 invasion of HBMEC: significantly inhibited E. coli K1 invasion of HBMEC in a dose-dependent manner
[5]; developed for asthma
  safety and tolerability in clinical trials: safe and well tolerated

## calphostin C
PKC
  inhibition of other signaling molecules: did not exhibit any inhibition of other signaling molecules
HBMEC [3]
  E. coli K1 invasion of human BMEC monolayers: inhibited type III GBS and E. coli K1 invasion of human BMEC monolayers in a dose-dependent manner
Human BMEC [4]
  type III GBS invasion of human BMEC monolayers: inhibited type III GBS and E. coli K1 invasion of human BMEC monolayers in a dose-dependent manner
